Data from patent US4315933A, “Antibacterial amide compounds and pharmaceutical compositions containing the same” (Warner-Lambert Company, priority 1980, dated 1982).
≈ marks a conversion by molar mass, not a printed value.

Columns and labels:
Assay in all cases: Minimal Inhibitory Concentration, in vitro
Type in all cases: cell-based
Entero. cloacae = conditions: for MIC: Enterobacter cloacae
Kleb. pneu. = test system: Kleb. pneu.
Serr. marces. = test system: Serr. marces.
Staph. aureus S18713 = conditions: for MIC: Staphylococcus aureus
[1] = test system: Pseudomonas aeruginosa #28

| Molecule | MIC (Entero. cloacae) | MIC (Kleb. pneu.) | MIC (Serr. marces.) | MIC (Staph. aureus S18713) | MIC [1] | Minimal Inhibitory Concentration (Kleb. pneu.) | Minimal Inhibitory Concentration (Serr. marces.) | Minimal Inhibitory Concentration [1] | Minimal Inhibitory Concentration (Entero. cloacae) | Minimal Inhibitory Concentration (Staph. aureus S18713) |
| --- | --- | --- | --- | --- | --- | --- | --- | --- | --- | --- |
| CC1(C)S[C@@H]2[C@H](NC(=O)[C@H](NC(=O)c3cnc(-c4ccc(NC(=O)CC#N)cc4)nc3O)c3ccc(O)cc3)C(=O)N2[C@H]1C(=O)O [Example 4, N-[2-[4-(Cyanoacetylamino)phenyl]-4-hydroxy-5-pyrimidinylcarbonyl]amoxicillin] | 3.1 µg/mL (≈ 4.8 µM) | 25 µg/mL (≈ 38.7 µM) | 3.1 µg/mL (≈ 4.8 µM) | > 50 µg/mL | 0.8 µg/mL (≈ 1.24 µM) |  |  |  |  |  |
| COCC(=O)Nc1ccc(-c2ncc(C(=O)N[C@@H](C(=O)N[C@@H]3C(=O)N4[C@@H]3SC(C)(C)[C@@H]4C(=O)O)c3ccccc3)c(O)n2)cc1 [Example 5, N-[2-[4-(Methoxyacetylamino)phenyl]-4-hydroxy-5-pyrimidinylcarbonyl]ampicillin] | 12.5 µg/mL (≈ 19.7 µM) | 25 µg/mL (≈ 39.4 µM) | 100 µg/mL (≈ 158 µM) | 100 µg/mL (≈ 158 µM) | 3.1 µg/mL (≈ 4.88 µM) |  |  |  |  |  |
| CCNC(=O)Nc1ccc(-c2ncc(C(=O)N[C@@H](C(=O)N[C@@H]3C(=O)N4[C@@H]3SC(C)(C)[C@@H]4C(=O)O)c3ccc(O)cc3)c(O)n2)cc1 [Example 8, N-[2-[4-(N-Ethylcarbamoylamino)phenyl]-4-hydroxy-5-pyrimidinylcarbonyl]amoxicillin] | 6.3 µg/mL (≈ 9.7 µM) | 12.5 µg/mL (≈ 19.2 µM) | 3.1 µg/mL (≈ 4.77 µM) | > 50 µg/mL | 0.8 µg/mL (≈ 1.23 µM) |  |  |  |  |  |
| N-[2-[4-(Acetylamino)phenyl]-4-hydroxy-5-pyrimidinylcarbonyl]amoxicillin [Example 2] |  |  |  |  |  | 6.3 µg/mL | 200 µg/mL | 1.6 µg/mL |  |  |
| N-[2-[4-(Dichloroacetylamino)phenyl]-4-hydroxy-5-pyrimidinylcarbonyl]amoxicillin [Example 1] |  |  |  |  |  | 12.5 µg/mL | 200 µg/mL | 1.6 µg/mL | 1.6 µg/mL | 50 µg/mL |
| N-[2-[4-(Trifluoroacetylamino)phenyl]-4-hydroxy-5-pyrimidinylcarbonyl]amoxicillin [Example 3] |  |  |  |  |  | 12.5 µg/mL | 3.1 µg/mL | 0.8 µg/mL | 6.3 µg/mL | > 50 µg/mL |
| N-[2-[4-[(2,2,2-Trifluoroethyl)thio]acetylamino]phenyl]-4-hydroxy-5-pyrimidinylcarbonyl]amoxicillin [Example 7] |  |  |  |  |  | 50 µg/mL | 200 µg/mL |  |  | 50 µg/mL |
| N-[2-[4-[(2-Ethoxy-1,2-dioxoethyl)amino]phenyl]-4-hydroxy-5-pyrimidinylcarbonyl]amoxicillin [Example 6] |  |  |  |  |  | 25 µg/mL |  | 1.6 µg/mL | 12,5 μg/ml |  |
